Values joined by “and” are separate entries in the source; they are usually repeats but may differ in a detail not shown here. Equal values may be shown once. Non-standard residues stand in square brackets, D forms with d. No end group written: not given here. *: point of attachment. Tiq = 1,2,3,4-tetrahydroisoquinoline-1-carboxylic acid; Phenylacetyl(4-Ph) = O=C(Cc1ccc(-c2ccccc2)cc1)*; Bip = N[C@@H](Cc1ccc(-c2ccccc2)cc1)C(=O)O; dBip = N[C@H](Cc1ccc(-c2ccccc2)cc1)C(=O)O; dDip = N[C@@H](C(=O)O)C(c1ccccc1)c1ccccc1; 1Nal = N[C@@H](Cc1cccc2ccccc12)C(=O)O; Desaminotyrosyl = O=C(CCc1ccc(O)cc1)*; Hydrocinnamoyl = O=C(CCc1ccccc1)*; Ac6c = NC1(C(=O)O)CCCCC1; Nle = CCCC[C@H](N)C(=O)O
Columns and labels:
MC1-R = target: T1, MC1-R (Mus musculus, UniProt Q01727); test: Competitive binding assay: inhibition of 125I-NDP-α-MSH binding to membranes from B16-F10 mouse melanoma cells; conditions: Table 6, 1 μM, mean of triplicate
T1 construct: MC1-R membranes were isolated from B16—F10 mouse melanoma cells; endogenous in cells; host or cells: B16-F10 mouse melanoma cells
Description: (§1) Rhenium-complexed metallopeptides of the formulas given in Table 1 were prepared, with the metallopeptides complexed with rhenium using the rhenium transfer agent ReOCl3(PPh3)2 in the presence of 1,8-Diazabicyclo[5,4,0] undec-7-ene as a base, as disclosed in International Application PCT/US00/16396, filed Jun. 14, 2000, Melanocortin Metallopeptide Constructs, Combinatorial Libraries and Applications, incorporated by reference herein. Affinities of compounds were measured using membranes from HEK-293 cells containing cloned human melanocortin receptor subtypes 3, 4 and 5. MC1-R membranes were isolated from B16—F10 mouse melanoma cells. The assay tube also contained a chosen concentration of the test peptide of this invention, complexed to a rhenium metal ion as indicated, for determining its efficacy in inhibiting the binding of ^125I-NDP-α-MSH to its receptor. Non-specific binding was measured by complete inhibition of binding of ^125I-NDP-α-MSH in the assay with the presence of 1 μM α-MSH. 100% specific binding was defined as the difference in radioactivity (cpm) bound to cell membranes in the absence and presence of 1 μM α-MSH. The cpm obtained in presence of test compounds were normalized with respect to 100% specific binding to determine the percent inhibition of ^125I-NDP-α-MSH binding.
(§2) Peptide sequences set forth in Table 6 were prepared using conventional synthetic means. The resulting sequences were rhenium-complexed to form metallopeptides, with the metallopeptides complexed with rhenium using the rhenium transfer agent ReOCl3(PPh3)2 in the presence of 1,8-Diazabicyclo[5,4,0] undec-7-ene as a base. Percent inhibition was determined as in Example 1 using the Re-complexed metallopeptides, using the same methods as described therein. All measures are means of triplicate determinations.

MC4-R = target: T2, MC4-R (Homo sapiens, UniProt P32245); test: Competitive binding assay: inhibition of 125I-NDP-α-MSH binding to HEK-293 membranes with cloned human receptor subtype 4; conditions: Table 6, 1 μM, mean of triplicate
T2 construct: expressed in transfected cells; host or cells: HEK-293
Description: as §1, §2

hMC5-R = target: T3, hMC5-R (Homo sapiens, UniProt P33032); test: Competitive binding assay: inhibition of 125I-NDP-α-MSH binding to HEK-293 membranes with cloned human receptor subtype 5; conditions: Table 6; 1 μM; mean of triplicate
T3 construct: expressed in transfected cells; host or cells: HEK-293
Description: as §1, §2

hMC2-R = target: T4, hMC2-R (Homo sapiens, UniProt P41968); test: Competitive binding assay of additional compounds, Table 6 hMC2-R; conditions: 1 μM, mean of triplicate
T4 construct: expressed in transfected cells; host or cells: HEK-293
Description: [The source words this procedure for another target and reports this target under the same test.] as §1, §2

[1] = listed as Hept-Ser(Bzl)-D-Nal 2′-Arg-Nal 2′-Cys-NH2, 1 µM
[2] = listed as 3′-Bromo phenyl acetyl-Arg-Arg-D-Phe(4′-Cl)-Cys-Nal 2′-NH2, 1 µM

T3 sequence (P33032 whole entry): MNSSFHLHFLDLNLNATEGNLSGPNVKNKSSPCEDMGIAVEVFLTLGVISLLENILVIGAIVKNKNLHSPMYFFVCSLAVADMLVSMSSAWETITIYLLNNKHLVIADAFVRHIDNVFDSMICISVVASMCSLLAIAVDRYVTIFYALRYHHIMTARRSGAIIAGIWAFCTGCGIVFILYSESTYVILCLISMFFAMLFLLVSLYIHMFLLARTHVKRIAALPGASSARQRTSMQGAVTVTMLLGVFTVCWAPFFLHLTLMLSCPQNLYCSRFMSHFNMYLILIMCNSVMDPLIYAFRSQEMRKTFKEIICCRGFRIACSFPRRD
T2 sequence (P32245 whole entry): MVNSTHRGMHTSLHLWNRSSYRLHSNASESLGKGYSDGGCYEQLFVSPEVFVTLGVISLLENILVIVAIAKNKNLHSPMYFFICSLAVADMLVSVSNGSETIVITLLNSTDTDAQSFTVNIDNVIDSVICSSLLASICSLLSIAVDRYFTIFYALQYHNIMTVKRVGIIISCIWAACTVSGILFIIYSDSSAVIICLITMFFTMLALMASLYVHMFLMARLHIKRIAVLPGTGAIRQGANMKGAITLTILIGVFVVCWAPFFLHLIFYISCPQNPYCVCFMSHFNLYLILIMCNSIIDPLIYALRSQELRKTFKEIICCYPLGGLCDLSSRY
T4 sequence (P41968 whole entry): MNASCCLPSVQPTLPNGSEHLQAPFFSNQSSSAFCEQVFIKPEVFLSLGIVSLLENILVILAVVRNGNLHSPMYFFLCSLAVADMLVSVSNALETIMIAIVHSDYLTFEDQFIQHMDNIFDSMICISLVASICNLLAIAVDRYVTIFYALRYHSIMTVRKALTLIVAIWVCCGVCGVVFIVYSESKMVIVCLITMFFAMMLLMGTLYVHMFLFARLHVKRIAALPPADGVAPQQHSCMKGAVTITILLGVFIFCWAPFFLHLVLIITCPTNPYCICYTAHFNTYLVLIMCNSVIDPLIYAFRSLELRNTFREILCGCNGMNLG
T1 sequence (Q01727 whole entry): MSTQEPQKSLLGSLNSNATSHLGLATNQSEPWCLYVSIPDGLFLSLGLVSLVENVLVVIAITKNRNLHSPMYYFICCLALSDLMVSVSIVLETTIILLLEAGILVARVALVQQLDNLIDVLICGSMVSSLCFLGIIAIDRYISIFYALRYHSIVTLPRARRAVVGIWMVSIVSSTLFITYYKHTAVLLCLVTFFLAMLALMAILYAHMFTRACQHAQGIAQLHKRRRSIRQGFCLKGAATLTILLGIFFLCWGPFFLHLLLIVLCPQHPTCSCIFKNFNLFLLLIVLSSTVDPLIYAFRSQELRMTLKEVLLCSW

| Substance | % Inhibition of Binding MC1-R (MC1-R) | % Inhibition of Binding hMC4-R (MC4-R) | % Inhibition of Binding hMC5-R (hMC5-R) [%] | % Inhibition of Binding hMC2-R (hMC2-R) [%] | % Inhibition of Binding MC1-R (MC1-R; [1]) [%] | % Inhibition of Binding hMC4-R (MC4-R; [1]) [%] | % Inhibition of Binding hMC2-R (hMC2-R; [1]) [%] | % Inhibition of Binding MC1-R (MC1-R; [2]) [%] | % Inhibition of Binding hMC4-R (MC4-R; [2]) [%] | % Inhibition of Binding hMC2-R (hMC2-R; [2]) [%] |
| --- | --- | --- | --- | --- | --- | --- | --- | --- | --- | --- |
| Tiq-D-Phe-Arg-Cys-Trp-NH2 (Tiq-[dF]RCW-NH2; also: metal complex) | 53% | 16% | 56 | 3 |  |  |  |  |  |  |
| 4′-Biphenylacetyl-D-Phe-Arg-Cys-Trp-NH2 ({Phenylacetyl(4-Ph)}-[dF]RCW-NH2; not fully specified; printed as 4′-Biphenylacetyl-D-Phe-Arg-Cys-Trp-NH2) | 1% | 0% | 50 | 0 |  |  |  |  |  |  |
| Tic-D-Phe(4′-Cl)-His-Cys-NH2 | 15% | 0% | 37 | 0 |  |  |  |  |  |  |
| 7-amino-haptanoyl-D-Igl-D-Phe-Arg-Cys-NH2 | 8% | 10% | 32 | 0 |  |  |  |  |  |  |
| 3′-Br Phenyl acetyl-Arg-Arg-D-Phe(4′-Me)-Cys-Trp-NH2 | 93% and 85% | 98% and 82% | 94 | 86 |  |  |  |  |  |  |
| 3′-Bromo phenyl acetyl-Arg-Thr-D-Phe(4′-Cl)-Cys-NH2 | 8% | 1% | 2 | 6 |  |  |  |  |  |  |
| Tic-D-Phe(4′-Cl)-Arg-Trp-Cys-NH2 | 45% | 88% | 90 | 71 |  |  |  |  |  |  |
| D-Tiq-D-Phe-Arg-Trp-Cys-NH2 | 5% | 34% | 23 | 0 |  |  |  |  |  |  |
| Ac-Nle-Ala-Arg-D-Phe-Arg-Cys-Trp-NH2 (Ac-[Nle]AR[dF]RCW-NH2; not fully specified; printed as Ac-Nle-Ala-Arg-D-Phe-Arg-Cys-Trp-NH2) | 92% | 39% | 59 | 26 |  |  |  |  |  |  |
| Nal 1′-D-Phe-Arg-Trp-Cys-NH2 ([1Nal][dF]RWC-NH2; also: metal complex) | 11% | 15% | 68 | 3 |  |  |  |  |  |  |
| Ac-[Nle]AY[dF]RCW-NH2 | 66% | 0% | 44 | 0 |  |  |  |  |  |  |
| 3′-Br Phenyl acetyl-Arg-Arg-D-Phe(3′-Cl)-Cys-Nal 2′-NH2 | 65% | 75% | 89 | 68 |  |  |  |  |  |  |
| 1-amino-1-cyclohexane carboxyl-D-Phe-Arg-Cys-Trp-NH2 ([Ac6c][dF]RCW-NH2; N-terminus assumed; SMILES N=C(N)NCCC[C@H](NC(=O)[C@@H](Cc1ccccc1)NC(=O)C1(N)CCCCC1)C(=O)N[C@@H](CS)C(=O)N[C@@H](Cc1c[nH]c2ccccc12)C(N)=O) | 92% | 14% | 65 | 0 |  |  |  |  |  |  |
| Ser(Bzl)-D-Phe-Arg-Trp-Cys-NH2 ({Ser(Bzl)}-[dF]RWC-NH2; also: metal complex) | 27% | 28% | 69 | 0 |  |  |  |  |  |  |
| NH2-(CH2)6-CO-Ser(Bzl)-D-Nal 2′-Arg-Nal 2′-Cys-NH2 | 22% | 95% | 100 | 70 |  |  |  |  |  |  |
| Ac-Nle-Ala-D-Tyr-D-Phe-Arg-Cys-Trp-NH2 (Ac-[Nle]A[dY][dF]RCW-NH2; not fully specified; printed as Ac-Nle-Ala-D-Tyr-D-Phe-Arg-Cys-Trp-NH2) | 15% | 1% | 0 | 0 |  |  |  |  |  |  |
| 3′-(4′-Hydroxyphenyl)propionyl-HiS-D-Phe-Arg-Cys-Trp-NH2 (Desaminotyrosyl-H[dF]RCW-NH2; not fully specified; printed as 3′-(4′-Hydroxyphenyl)propionyl-HiS-D-Phe-Arg-Cys-Trp-NH2) | 76% | 0% | 21 | 0 |  |  |  |  |  |  |
| 3′-Br Phenyl acetyl-Lys-Ala-D-Phe(2′-Cl)-Cys-Trp-NH2 | 9% | 34% | 44 | 19 |  |  |  |  |  |  |
| 3′-Phenylpropionyl-D-Phe-Arg-Cys-Trp-NH2 (Hydrocinnamoyl-[dF]RCW-NH2; not fully specified; printed as 3′-Phenylpropionyl-D-Phe-Arg-Cys-Trp-NH2) | 3% | 0% | 44 | 0 |  |  |  |  |  |  |
| Tic-D-Phe(3′-Cl)-Arg-Trp-Cys-NH2 | 18% | 62% | 76 | 41 |  |  |  |  |  |  |
| Amc-D-Phe-Arg-Cys-Trp-NH2 | 7% | 4% | 8 | 0 |  |  |  |  |  |  |
| [dDip][dF]RCW-NH2 | 58% | 2% | 53 | 8 |  |  |  |  |  |  |
| 7-amino-haptanoyl-Ser(Bzl)-D-Nal 2′-Arg-Cys-NH2 | 3% | 6% | 34 | 0 |  |  |  |  |  |  |
| Heptanoyl-Ser(Bzl)-D-Nal 2′-Arg-Nal 2′-Cys-NH2 | 28% | 91% |  | 41 | 25 | 92 | 62 |  |  |  |
| 3′-Br Phenyl acetyl-Arg-Arg-D-Phe(4′-Cl)-Cys-Nal 2′-NH2 | 90% | 96% |  | 95 |  |  |  | 79 | 94 | 55 |
| Ac-[Nle]AH[dBip]R[Bip]C-NH2 | 95% |  |  | 100 |  |  |  |  |  |  |
| Heptanoyl-Ser(Bzl)-D-Phe(4′-Cl)-Arg-Bip-Cys-NH2 | 65% |  |  | 5 |  |  |  |  |  |  |
